# Measurements published in patent publication US20120196766A1, “Therapeutic Use of Farnesyltransferase Inhibitors and Methods of Monitoring the Efficacy Thereof” (priority 2004, published 2012).
# Where two headings read alike, the source gives them in different places.
# What was measured:
# [1] = tested on: human PBMC; assay: LPS-induced cytokine production in human PBMC; format: cell-based
# Experimental: (§1) Human IL-6, IL18, IL1β, MCP-1, MMP-9, and mouse IL-6, IL18, TNFα, MCP-1 and IL-1β were measured with ELISA kits (R&D Systems) according to the manufacturer's instructions.
# Heparinized human blood (25 ml) from a healthy donor was overlaid into a 50 ml conical tubes containing 20 ml Ficoll-Paque, and centrifuged for 20 min at 2000 rpm at room temperature and then allowed to stop without using the brake on the centrifuge. The upper layer was aspirated, leaving the mononuclear cell layer undisturbed at the interface. Cells were carefully transferred the to a new […] conical tube. The conical tube was filled with PBS, mixed and centrifuged at 1500 rpm for 15 minutes at room temperature. The supernatant was carefully and completely removed. The cell pellet was resupended in 50 ml of PBS and centrifuged at 1500 rpm for 5 minutes. This wash step was repeated once more. The cells were counted and resuspended cells at 1.7×10^6/ml in low-endotoxin RPMI1640/10% FBS.
# Human PBMC (180 μl at 1.7×10^6/ml) were pipetted into each well of a 96-well plate. […] Cells were incubated at 37° C., under 5% CO2 for 1 hour, then 10 μl LPS (diluted in medium) were added per well to reach a final concentration of 10 ng/ml. Cells were cultured at 37° C., under 5% CO2. Supernatants were collected at 16 hours, 24 hours and 40 hours of LPS treatment, and IL-6 secretion was quantified.
# [2] = tested on: collagen-induced arthritis; conditions: WO 00/01386; cited from earlier work
# [3] = tested on: THP-1 cells; assay: Western blot analysis of LPS, TNF-α and IL-1α induced signaling in THP-1 cells; format: cell-based, Human
# Experimental: THP-1 cells in 0.5% FBS/RPMI were pre-treated with or without tipifarnib for 18 hours, and subsequently stimulated with LPS (100 ng/ml), TNF-α (10 ng/ml) or IL-1α (5 ng/ml) for 30 minutes. Cells were harvested, washed three times in ice-cold PBS, and lysed in lysis buffer (20 mM Tris (pH 7.5), 150 mM NaCl, 1 mM EDTA, 1 mM EGTA, 1% Triton X-100, 2.5 mM sodium pyrophosphate, 1 mM ([…], 1 mM Na3VO4, 1 μg/ml Leupeptin, 1 mM PMSF). Cell lysates from each sample were mixed with an equal amount of 2× SDS-PAGE sample buffer (Invitrogen), and proteins were separated by electrophoresis in Tris-glycine 10-20% gradient gels (Novex), and transferred to nitrocellulose membranes (PROTRAN; Schleicher & Schuell). The membranes were blocked with 3% BSA in PBS-0.05% Tween-20, and sequentially incubated with primary antibodies and HRP-conjugated secondary antibodies (anti-rabbit IgG or anti-mouse IgG and IgM; PIERCE), followed by ECL detection (Amersham Biosciences). The primary antibodies used were rabbit polyclonal anti-IκBa, and -p38 (Santa Cruz), mouse monoclonal anti-H-Ras (Chemicon), mouse monoclonal anti-phospho-p38 and rabbit polyclonal anti-phospho-Erk (Cell Signaling Technology).
# [4] = tested on: BALB/c mice; assay: LPS-induced cytokine production in vivo (murine model of LPS-induced inflammation); conditions: for inhibition at 50 mg/kg: Mus musculus; for MCP-1 production: tipifarnib
# Experimental: The experiments were performed on female BALB/c mice (6-7 week old; Charles River Laboratories, Inc. MA). […] The control mice received the vehicle (20% cyclodextran) only. 20 μg LPS (Sigma), diluted in PBS, was injected into each mouse intraperitoneally. Blood samples were collected either by eye bleeding or cardiac puncture at 1 and 2 hours after LPS injection in one experiment, and at 2 and 3 hours after LPS injection in a second experiment. Plasma samples were collected by centrifugation, and stored at ≦−20° C. before being tested for cytokines using individual ELISA kits or Luminex analysis (see below).
# as §1
# Samples were tested for cytokines using the Bio-plex cytokine assay kit (Bio-Rad Laboratories, Inc.) according to the manufacturer's instructions. Briefly, 50 μL anti-cytokine antibody conjugated beads were added to wells of a filter plate pre-equilibrated with assay buffer. The beads were washed, then 50 μL of undiluted cell culture supernatant or 4-fold diluted plasma samples were added and incubated for 2 hours. Biotinylated anti-cytokine antibody (25 μL) was added to each well and the plate was incubated with shaking for 1.5 hours. Streptavidin-PE (50 μL) was added to each well and the plate was incubated with shaking for 45 min. between incubations, wells were washed 3 times with 100 μL wash buffer and unbound analytes were filtered using a vacuum manifold. Following the last wash step, 125 μL of assay buffer was added to each well and the plate was placed on a shaker for 10 min. The plate was read on a Luminex^100 instrument (Luminex Corporation, Austin, Tex.) according to the manufacturer's instructions. The concentration of cytokine was determined from a standard curve assayed at the same time.
# [5] = second experiment, 3 hours (results not shown)
smiles,measurement,setting,value
"Cn1cncc1C(N)(c1ccc(Cl)cc1)c1ccc2c(c1)c(-c1cccc(Cl)c1)cc(=O)n2C (single isomer, unassigned; (+)) [tipifarnib, (+)-6-[amino(4-chlorophenyl)(1-methyl-1H-imidazol-5-yl)methyl]-4-(3-chlorophenyl)-1-methyl-2(1H)-quinolinone]",LPS-induced IL-6 production,"[1]; tipifarnib 2 μM, LPS 10 ng/ml, 10% FBS",no effect
same,IL-6 mean value lower than in absence of compound,"[1]; tipifarnib 5 μM, 24 hours, not statistically significant (P=0.104)",approximately 40%
same,LPS-induced IL-6 production,"[1]; tipifarnib 5 μM, after 16 and 40 hours",highly significant inhibition
same,disease scores,[2],reduction of disease scores
same,IκB degradation induced by IL-1α,[3]; 2 μM tipifarnib for 18 hours,no inhibition
same,IκB degradation induced by TNF-α,[3]; 2 μM tipifarnib for 18 hours,no inhibition
same,LPS-induced IκB degradation,[3]; 2 μM tipifarnib for 18 hours,significantly inhibited
same,LPS-induced p38 phosphorylation,[3]; 2 μM tipifarnib for 18 hours,partially reduced
same,P38 protein expression,[3]; 2 μM tipifarnib for 18 hours,not affected
same,TNF-α induced p38 phosphorylation,[3]; 2 μM tipifarnib for 18 hours,No significant inhibition
same,H-Ras farnesylation,"[3]; tipifarnib pre-treatment, all treatment groups",partially inhibited
same,ERK phosphorylation,"[3]; tipifarnib pre-treatment, control and stimulated cells",reduced
same,LPS-induced TNF-α production,"[4]; 50 mg/kg oral 24, 17 and 1 hour before LPS 20 μg i.p., plasma at 1 and 2 hours",highly significant inhibition
same,inhibition at 50 mg/kg,"[4]; 50 mg/kg oral before LPS, 2 hours, first experiment, read-out: inhibition of MIP-1α production",~50%
same,inhibition at 50 mg/kg,"[4]; tipifarnib 50 mg/kg oral before LPS, after 3 hours, read-out: inhibition of IL-6 production",~50%
same,LPS-induced IL-8,[4]; results not shown,No effects
same,LPS-induced RANTES,[4]; results not shown,No effects
same,IL12-p40 induction by LPS,[4]; [5],inhibited
same,IL12-p70 induction by LPS,[4]; [5],inhibited
same,IL-1β production,"[4]; tipifarnib 50 mg/kg oral before LPS, after 3 hours",almost complete inhibition
same,MCP-1 production,[4]; 2 hours,significant inhibition
same,MCP-1 production,[4]; 3 hours,a decrease that did not reach statistical significance
